Experimental data taken from US20050227220A1, “Compositions and Methods for Evaluating and Designing Nuclear Receptor Ligands that Modulate Co-Regulator Affinity” (priority 2002, published 2005).

Tests used:
[1] = target: T1, full length human PPARα (Homo sapiens, UniProt Q07869); experiment: Mammalian two-hybrid assay (CV-1 cells); assay type: cell-based; details: VP16-PPARα, GAL4-NCoR (2239-2300), result in words
T1 construct: expressed in transfected cells; host or cells: CV-1 cells, vector pVP16 (Clonetech)
T1 sequence (Q07869 1-468): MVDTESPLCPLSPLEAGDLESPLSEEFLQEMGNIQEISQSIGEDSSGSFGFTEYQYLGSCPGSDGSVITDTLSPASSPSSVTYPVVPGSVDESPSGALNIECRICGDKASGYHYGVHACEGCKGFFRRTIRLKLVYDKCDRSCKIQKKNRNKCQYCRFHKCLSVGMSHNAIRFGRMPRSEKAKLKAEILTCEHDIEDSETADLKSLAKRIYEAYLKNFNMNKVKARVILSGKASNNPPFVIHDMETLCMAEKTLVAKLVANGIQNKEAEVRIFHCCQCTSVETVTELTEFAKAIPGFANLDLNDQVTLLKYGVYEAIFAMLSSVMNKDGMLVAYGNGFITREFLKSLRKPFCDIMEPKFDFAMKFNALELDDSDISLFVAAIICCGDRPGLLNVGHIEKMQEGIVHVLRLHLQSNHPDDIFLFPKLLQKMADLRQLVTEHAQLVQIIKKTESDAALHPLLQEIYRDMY
Source text: Mammalian two-hybrid assays were used to examine the ability of the tyrosine-based class of PPAR ligands to promote association or dissociation of the co-activator CBP and the corepressor NCoR in the context of a cellular environment. The assays for the three PPAR subtypes used full length human PPARα, PPARγ2 or PPARδ fused to the activation domain of VP16 and previously identified interaction domains of CBP and NCoR fused to the DNA binding domain of GAL4.
Expression plasmids for the VP16-human PPAR constructs were prepared by inserting amplified cDNAs encoding full length PPARα, PPARγ2 and PPARδ fused to amino acids 410-490 of the VP16 viral activation domain, into the expression vector pVP16 (Clonetech). […] The reporter plasmid was (UAS)5-tk-SPAP, and the internal control plasmid for all transfections was β-galactosidase expression vector (pCH110, Amersham).
CV-1 cells were maintained in culture in DME high glucose medium supplemented with 10% FBS and 2 mM glutamine in a humidified incubator (5% CO2 in air) at 37° C. Cells were harvested 72 hours prior to experimental use and placed in phenol red free D-MEM/F-12 medium with 15 mM HEPES supplemented with 10% charcoal/dextran-treated FBS (HyClone, Logan, Utah). The cells were harvested and seeded at 2.0×10^4 cell per well in a 96-well plate the day prior to transfection. Cells were transfected for 16 hr using Lipofectamine (Life Technologies, Inc., Rockville, Md.) essentially according to the manufacturer's instructions. The total amount of DNA transfected into each well was 80 ng. Transfection mixtures contained 8 ng VP16-PPAR plasmid, 8 ng SPAP reporter, 25 ng of pCH110(β-galactosidase) control plasmid, 35 ng of pBluescript II KS+ (Clonetech) and 4 ng of either coactivator or corepressor plasmid. Transfection quantities for full length PPAR and cofactor plasmids were optimized to generate a signal that was half of the maximal activation. These conditions would allow for dissociation or association to be experimentally determined for each ligand evaluated. Stock solutions of drugs were prepated in DMSO and dilutions were made in phenol red-free D-MEM/F-12 with 15 mM HEPES supplemented with 10% charcoal stripped, delipidated, heat inactivated (62° C. for 35 min) bovine calf serum (Sigma, St. Louis, Mo.) such that the final concentration of DMSO was 0.1%. Transfection mixtures were aspirated and 100 μl, of medium containing drug was added to each well.

[2] = target: T2, PPARα LBD (Homo sapiens, UniProt Q07869); experiment: FRET assay: ligand effect on CBP fragment / NCoR ID-C binding to PPAR LBD; assay type: biochemical; details: 10 nM PPAR LBD; for effect on apparent affinity of PPARα for the co-activator fragment from CBP: CBP (57-454)
T2 construct: made in house; host or cells: bacterial BL21-DE3, vector pRSETA
T2 sequence (Q07869 192-468): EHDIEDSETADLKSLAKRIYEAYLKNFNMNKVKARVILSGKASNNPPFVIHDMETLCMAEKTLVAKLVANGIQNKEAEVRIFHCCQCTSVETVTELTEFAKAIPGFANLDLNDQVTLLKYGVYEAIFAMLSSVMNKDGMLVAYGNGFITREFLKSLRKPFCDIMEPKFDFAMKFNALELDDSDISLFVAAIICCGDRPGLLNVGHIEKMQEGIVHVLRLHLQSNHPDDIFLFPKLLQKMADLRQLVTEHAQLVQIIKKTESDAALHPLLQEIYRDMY
Source text: (§1) The experimentally determined α value is the ratio of cofactor affinities in the presence and absence of a saturating concentration of ligand. This analysis permits a direct comparison of the effects of compounds, independent of cofactor concentration and differences in coregulator affinity for the individual receptors. […] 98(9): p.
(§2) The effects of the coregulator environment on the apparent affinities and selectivities of various ligands were than examined. Experimentally determined pKs and the α values derived from the FRET assay were used to calculate the apparent affinity of the ligand for the receptor/cofactor complex (i.e. K/α).
(§3) FIG. 5 illustrates the effect of ligands on coactivator and corepressor binding to PPAR subtypes determined by FRET.

[3] = target: T3, PPARδ LBD (Homo sapiens, UniProt Q03181); experiment: as above; assay type: biochemical; details: 10 nM PPAR LBD, CBP (57-454)
T3 construct: made in house; host or cells: bacterial BL21-DE3, vector pRSETA
T3 sequence (Q03181 139-441): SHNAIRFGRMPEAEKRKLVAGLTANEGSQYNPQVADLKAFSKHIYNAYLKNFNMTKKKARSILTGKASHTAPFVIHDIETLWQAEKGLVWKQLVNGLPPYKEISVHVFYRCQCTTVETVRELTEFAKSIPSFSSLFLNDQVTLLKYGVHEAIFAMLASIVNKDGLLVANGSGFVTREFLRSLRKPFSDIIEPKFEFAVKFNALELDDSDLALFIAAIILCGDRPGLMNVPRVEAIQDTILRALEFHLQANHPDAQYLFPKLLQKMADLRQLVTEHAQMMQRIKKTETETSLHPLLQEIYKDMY
Source text: as §1, §2, §3

[4] = target: T4, PPARδ LBD / RXRα LBD (Homo sapiens, UniProt Q03181); experiment: FRET assay: ligand effect on RXRα LBD binding to PPAR LBD; details: 10 nM PPAR LBD, 4 concentrations of RXR
T4 sequence (Q03181 139-441): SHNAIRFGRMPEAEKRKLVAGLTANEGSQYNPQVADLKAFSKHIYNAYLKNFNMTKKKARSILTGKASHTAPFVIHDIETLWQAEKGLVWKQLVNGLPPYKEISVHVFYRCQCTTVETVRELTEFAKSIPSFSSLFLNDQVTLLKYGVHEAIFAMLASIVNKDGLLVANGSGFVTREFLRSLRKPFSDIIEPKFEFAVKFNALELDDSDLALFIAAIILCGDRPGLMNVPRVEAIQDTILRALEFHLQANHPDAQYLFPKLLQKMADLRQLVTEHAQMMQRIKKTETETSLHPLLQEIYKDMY
T4 sequence (P19793 225-462 partner limits assumed): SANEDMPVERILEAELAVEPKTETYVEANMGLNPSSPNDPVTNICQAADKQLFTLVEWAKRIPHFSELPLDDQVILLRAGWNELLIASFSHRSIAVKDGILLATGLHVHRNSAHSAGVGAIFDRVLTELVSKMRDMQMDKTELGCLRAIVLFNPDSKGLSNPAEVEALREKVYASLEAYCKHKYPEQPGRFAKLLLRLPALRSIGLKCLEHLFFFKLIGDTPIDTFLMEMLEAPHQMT

[5] = target: GAL4-CBP (1-115) (UniProt P04386 1-147; P45481 1-115); experiment: cell-based or functional assay

Question: Which “effect on PPARα interaction with NCoR” value [1] does the source give for `CCC(=O)NC[C@H](Cc1ccc(OCCc2nc(-c3ccccc3)oc2C)cc1)N/C(C)=C\C(=O)c1ccc(C(F)(F)F)cc1` [GW6471] here?
Answer: modulation of co-repressor interaction was seen

Question: With `Cc1oc(-c2ccccc2)nc1CCOc1ccc(C[C@H](Nc2ccccc2C(=O)c2ccccc2)C(=O)O)cc1` [GW2570, farglitazar] as the molecule, how does the “effect on apparent affinity of PPARα for the co-activator fragment from CBP” value [2] read?
Answer: increased the apparent affinity

Question: And the “effect on apparent affinity of PPARδ for the co-activator fragment from CBP” value [3]?
Answer: increased the apparent affinity

Question: What about the “promotion of association of PPARδ with RXR” value [4] of the same molecule?
Answer: most effective

Question: For `C/C(=C/C(=O)c1ccccc1)N[C@@H](Cc1ccc(OCCc2nc(-c3ccccc3)oc2C)cc1)C(=O)O` [GW9544], which “effect on apparent affinity of PPARα for the co-activator fragment from CBP” value [2] is on record?
Answer: increased the apparent affinity

Question: Which results are given for `Cc1cc(SCc2sc(-c3ccc(C(F)(F)F)cc3)nc2C)ccc1OCC(=O)O` [GW1516]?
Answer: effect on apparent affinity of PPARα for the co-activator fragment from CBP [2]: increased the apparent affinity; effect on affinity of PPARα for the co-repressor peptide ([2]; NCoR ID-C): decreased the affinity

B1: VP16-human PPARδ (full length) (other)
chain: LSTAPPTDVSLGDELHLDGEDVAMAHADALDDFDLDMLGDGDSPGPGFTPHDSAPYGALDMADFEFEQMFTDALGIDEYGGMEQPQEEAPEVREEEEKEEVAEAEGAPELNGGPQHALPSSSYTDLSRSSSPPSLLDQLQMGCDGASCGSLNMECRVCGDKASGFHYGVHACEGCKGFFRRTIRMKLEYEKCERSCKIQKKNRNKCQYCRFQKCLALGMSHNAIRFGRMPEAEKRKLVAGLTANEGSQYNPQVADLKAFSKHIYNAYLKNFNMTKKKARSILTGKASHTAPFVIHDIETLWQAEKGLVWKQLVNGLPPYKEISVHVFYRCQCTTVETVRELTEFAKSIPSFSSLFLNDQVTLLKYGVHEAIFAMLASIVNKDGLLVANGSGFVTREFLRSLRKPFSDIIEPKFEFAVKFNALELDDSDLALFIAAIILCGDRPGLMNVPRVEAIQDTILRALEFHLQANHPDAQYLFPKLLQKMADLRQLVTEHAQMMQRIKKTETETSLHPLLQEIYKDMY
Question: How did the “mammalian two-hybrid reporter, fold association with GW1929 and GW7845” value [5] turn out when B1 was run?
Answer: ~2 fold
